What is called IC50 is the concentration at which inhibition is half-maximal.

Like-named read-outs stand apart in the source and are kept apart here. Bounds are passed on as bounds.

IC50 data for 26 molecules are collected here from patent US8541418B2, “Inhibitors of polo-like kinase” (Elan Pharmaceutical, Inc., priority 2009, dated 2013).

Type in all cases: biochemical
The target of one experiment is PLK1 (Homo sapiens, UniProt P53350). In words: PLK TR-FRET peptide assay, PLK1. A general note: Time-resolved FRET reads energy transfer from a long-lived donor to a nearby acceptor.
Chain of PLK1 (P53350 whole entry): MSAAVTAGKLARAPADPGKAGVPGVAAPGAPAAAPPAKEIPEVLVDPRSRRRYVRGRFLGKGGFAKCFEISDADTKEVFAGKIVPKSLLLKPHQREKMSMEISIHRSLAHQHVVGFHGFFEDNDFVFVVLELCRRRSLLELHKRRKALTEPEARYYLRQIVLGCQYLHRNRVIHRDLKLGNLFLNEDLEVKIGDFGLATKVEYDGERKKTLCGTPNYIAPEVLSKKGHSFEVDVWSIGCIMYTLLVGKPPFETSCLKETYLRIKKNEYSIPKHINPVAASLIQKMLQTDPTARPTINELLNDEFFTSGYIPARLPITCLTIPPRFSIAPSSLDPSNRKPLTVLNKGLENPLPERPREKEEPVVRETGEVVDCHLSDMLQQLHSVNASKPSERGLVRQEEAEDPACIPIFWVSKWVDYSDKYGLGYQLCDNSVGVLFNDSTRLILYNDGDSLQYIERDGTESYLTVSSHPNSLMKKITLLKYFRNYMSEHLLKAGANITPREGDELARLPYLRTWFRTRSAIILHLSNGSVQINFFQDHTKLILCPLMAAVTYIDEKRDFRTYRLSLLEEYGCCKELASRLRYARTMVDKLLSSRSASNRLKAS
The next experiment concerns the target PLK2 (Homo sapiens, UniProt Q9NYY3). In words: PLK TR-FRET peptide assay, PLK2. The following applies: PLK TR-FRET peptide assay, read-out: Plk2 IC50.
The target in the next experiment is PLK3 (Homo sapiens, UniProt Q9H4B4). The experiment in a line: PLK TR-FRET peptide assay, PLK3.
Chain of PLK3 (Q9H4B4 whole entry): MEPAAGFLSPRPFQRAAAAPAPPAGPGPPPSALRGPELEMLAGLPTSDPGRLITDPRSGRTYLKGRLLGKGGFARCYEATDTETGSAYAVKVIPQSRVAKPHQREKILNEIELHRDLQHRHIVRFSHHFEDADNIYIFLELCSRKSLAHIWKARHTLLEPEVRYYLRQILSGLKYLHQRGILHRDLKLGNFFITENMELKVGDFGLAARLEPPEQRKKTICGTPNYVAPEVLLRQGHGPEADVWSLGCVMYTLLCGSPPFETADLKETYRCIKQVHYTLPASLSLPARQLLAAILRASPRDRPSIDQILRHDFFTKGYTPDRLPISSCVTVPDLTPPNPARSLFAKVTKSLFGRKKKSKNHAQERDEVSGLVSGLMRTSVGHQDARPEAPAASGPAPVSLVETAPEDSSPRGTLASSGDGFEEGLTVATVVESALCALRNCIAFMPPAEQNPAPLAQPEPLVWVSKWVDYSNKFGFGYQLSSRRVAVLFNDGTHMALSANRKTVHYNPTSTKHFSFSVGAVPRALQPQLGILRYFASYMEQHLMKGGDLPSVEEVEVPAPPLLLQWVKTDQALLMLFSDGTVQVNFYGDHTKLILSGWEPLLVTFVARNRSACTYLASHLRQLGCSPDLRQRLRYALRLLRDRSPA
The mark [1] stands for this setting: GST-PLK3, 15 min reaction, read-out: Plk3 IC50.

Chain of PLK2 (Q9NYY3 whole entry): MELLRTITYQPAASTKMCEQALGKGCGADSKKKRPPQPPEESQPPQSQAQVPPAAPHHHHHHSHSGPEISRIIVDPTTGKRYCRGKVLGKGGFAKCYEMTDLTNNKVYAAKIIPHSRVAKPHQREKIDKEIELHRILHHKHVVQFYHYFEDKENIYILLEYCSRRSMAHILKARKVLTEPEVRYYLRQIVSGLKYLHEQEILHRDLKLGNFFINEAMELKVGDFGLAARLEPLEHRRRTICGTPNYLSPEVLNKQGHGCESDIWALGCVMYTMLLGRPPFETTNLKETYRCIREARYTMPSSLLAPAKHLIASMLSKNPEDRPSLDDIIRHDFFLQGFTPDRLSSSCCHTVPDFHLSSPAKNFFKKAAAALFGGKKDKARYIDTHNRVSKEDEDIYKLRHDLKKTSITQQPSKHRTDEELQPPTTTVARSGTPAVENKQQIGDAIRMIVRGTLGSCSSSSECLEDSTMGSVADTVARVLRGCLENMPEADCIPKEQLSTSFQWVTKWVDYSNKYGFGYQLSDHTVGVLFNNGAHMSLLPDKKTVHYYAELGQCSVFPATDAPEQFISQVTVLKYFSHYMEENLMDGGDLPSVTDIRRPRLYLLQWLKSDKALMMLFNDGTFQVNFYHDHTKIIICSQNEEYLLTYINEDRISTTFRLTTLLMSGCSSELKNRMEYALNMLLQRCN

Regarding `CC[C@]12CCCCN1c1nc(-n3ccnc3)ncc1N(C)C2=O` [Example 287, (R)-6a-ethyl-2-(1H-imidazol-1-yl)-5-methyl-7,8,9,10-tetrahydro-5H-pyrido[2,1-h]pteridin-6(6aH)-one], the IC50 against PLK1 (GST-PLK1, 60 min reaction) is over 50 µM; at PLK2 (GST-PLK2, 60 min reaction), over 50 µM; at PLK3 (setting [1]) it was over 50 µM.
On to `CC[C@@H]1C(=O)N(C)c2cnc(-c3cccc(S(C)(=O)=O)c3)nc2N1C1CCCC1` [Example 71, (R)-8-cyclopentyl-7-ethyl-5-methyl-2-(3-(methylsulfonyl)phenyl)-7,8-dihydropteridin-6(5H)-one], for which the concentration for half-maximal inhibition (IC50) at PLK1 (GST-PLK1, 60 min reaction) fell in the range of 1 to 10 µM; on PLK2 (GST-PLK2, 60 min reaction) it was 1 to 10 µM; on PLK3 (setting [1]) it was 10 to 50 µM.
As to `CC[C@@H]1C(=O)N(C)c2cnc(-c3nccnc3-c3ccc(C(F)(F)F)cc3)nc2N1C(C)C` [Example 175, (R)-7-ethyl-8-isopropyl-5-methyl-2-(3-(4-(trifluoromethyl)phenyl)pyrazin-2-yl)-7,8-dihydropteridin-6(5H)-one], the IC50 on PLK1 (GST-PLK1, 60 min reaction) is 1 to 10 µM; at PLK2 (GST-PLK2, 60 min reaction), 1 to 10 µM; at PLK3 (setting [1]), 10 to 50 µM.
Regarding `CC[C@@H]1C(=O)N(C)c2cnc(-c3ccncc3CNS(=O)(=O)c3ccccc3)nc2N1C(C)C` [Example 136, (R)—N-((4-(7-ethyl-8-isopropyl-5-methyl-6-oxo-5,6,7,8-tetrahydropteridin-2-yl)pyridin-3-yl)methyl)benzenesulfonamide], the half-maximal inhibitory concentration (IC50) against PLK1 (GST-PLK1, 60 min reaction) is 10 to 50 µM; on PLK2 (GST-PLK2, 60 min reaction) it was 1 to 10 µM; at PLK3 (setting [1]) it was over 50 µM.
Taken in the same sequence, the figures for `CCC1C(=O)N(C)c2cnc(-c3cn[nH]c3-c3nccs3)nc2N1c1ccc(F)cc1` (stereo not drawn) [Example 370] were under 1 µM, under 1 µM and 1 to 10 µM.
As for `CC[C@@H]1C(=O)N(C)c2cnc(-c3ccncc3CNC(=O)OC)nc2N1C(C)C` [Example 128, (R)-methyl (4-(7-ethyl-8-isopropyl-5-methyl-6-oxo-5,6,7,8-tetrahydropteridin-2-yl)pyridin-3-yl)methylcarbamate], the half-maximal inhibitory concentration (IC50) on PLK1 (GST-PLK1, 60 min reaction) lay in the range of 10 to 50 µM; at PLK2 (GST-PLK2, 60 min reaction) it was 1 to 10 µM; at PLK3 (setting [1]), 10 to 50 µM.
On to `CC[C@@H]1C(=O)N(C)c2cnc(-c3ccncc3CNC(C)=O)nc2N1C(C)C` [Example 129, (R)—N-((4-(7-ethyl-8-isopropyl-5-methyl-6-oxo-5,6,7,8-tetrahydropteridin-2-yl)pyridin-3-yl)methyl)acetamide], for which the half-inhibitory concentration (IC50) was over 50 µM against PLK1 (GST-PLK1, 60 min reaction); 10 to 50 µM on PLK2 (GST-PLK2, 60 min reaction); over 50 µM on PLK3 (setting [1]).
Turning to `CC[C@@H]1C(=O)N(C)c2cnc(-c3cn[nH]c3)nc2N1C(C)C` [Example 31, (R)-7-ethyl-8-isopropyl-5-methyl-2-(1H-pyrazol-4-yl)-7,8-dihydropteridin-6(5H)-one], the IC50 was 1 to 10 µM at PLK1 (GST-PLK1, 60 min reaction); under 1 µM on PLK2 (GST-PLK2, 60 min reaction); over 50 µM on PLK3 (setting [1]).
Taken in the same sequence, the figures for `CC[C@@H]1C(=O)N(C)c2cnc(-n3ccnc3-c3nccs3)nc2N1C(C)C` [Example 151, (R)-7-ethyl-8-isopropyl-5-methyl-2-(2-(thiazol-2-yl)-1H-imidazol-1-yl)-7,8-dihydropteridin-6(5H)-one] were 1 to 10 µM, under 1 µM and 10 to 50 µM.
Taken in the same sequence, the figures for `CC[C@@H]1C(=O)N(C)c2cnc(-n3ccnc3-c3ccc(F)cc3)nc2N1C(C)C` [Example 212, (R)-7-ethyl-2-(2-(4-fluorophenyl)-1H-imidazol-1-yl)-8-isopropyl-5-methyl-7,8-dihydropteridin-6(5H)-one] were 1 to 10 µM, under 1 µM and 1 to 10 µM.
In the case of `CC[C@@]12CCCN1c1nc(-n3nccc3-c3ccccc3)ncc1N(C)C2=O` [Example 193, (S)-6a-ethyl-5-methyl-2-(5-phenyl-1H-pyrazol-1-yl)-6a,7,8,9-tetrahydropyrrolo[2,1-h]pteridin-6(5H)-one], the IC50 against PLK1 (GST-PLK1, 60 min reaction) was 1 to 10 µM; at PLK2 (GST-PLK2, 60 min reaction) it was 1 to 10 µM; on PLK3 (setting [1]), 1 to 10 µM.
Turning to `CC[C@@H]1C(=O)N(C)c2cnc(-n3ccnc3-c3ccc(F)c(F)c3)nc2N1C1CCC(F)(F)C1` (stereo partly drawn) [Example 237, (7R)-8-(3,3-difluorocyclopentyl)-2-(2-(3,4-difluorophenyl)-1H-imidazol-1-yl)-7-ethyl-5-methyl-7,8-dihydropteridin-6(5H)-one], the half-maximal inhibitory concentration (IC50) at PLK1 (GST-PLK1, 60 min reaction) is under 1 µM; on PLK2 (GST-PLK2, 60 min reaction) it was under 1 µM; on PLK3 (setting [1]) it was 1 to 10 µM.
For the molecule `CC[C@@H]1C(=O)N(C)c2cnc(-n3ccnc3-c3ccc(F)c(F)c3)nc2N1C1COC1` [Example 341, (R)-2-(2-(3,4-difluorophenyl)-1H-imidazol-1-yl)-7-ethyl-5-methyl-8-(oxetan-3-yl)-7,8-dihydropteridin-6(5H)-one], the IC50 against PLK1 (GST-PLK1, 60 min reaction) is over 50 µM; at PLK2 (GST-PLK2, 60 min reaction), 1 to 10 µM; on PLK3 (setting [1]), over 50 µM.
Regarding `CCC1C(=O)N(C)c2cnc(-c3cnsc3-c3ccc(F)cc3)nc2N1c1cccc(C#N)c1` (racemic) [Example 401, 3-(7-ethyl-2-(5-(4-fluorophenyl)isothiazol-4-yl)-5-methyl-6-oxo-6,7-dihydropteridin-8(5H)-yl)benzonitrile], the IC50 is 1 to 10 µM against PLK1 (GST-PLK1); under 1 µM at PLK2 (GST-PLK2); 1 to 10 µM at PLK3 (GST-PLK3, read-out: Plk3 IC50).
As for `CCC1C(=O)N(C)c2cnc(-n3ccnc3-c3ccc(F)cc3)nc2N1c1cccc(-c2cncnc2)c1` (stereo not drawn) [Example 346, 7-ethyl-2-(2-(4-fluorophenyl)-1H-imidazol-1-yl)-5-methyl-8-(3-(pyrimidin-5-yl)phenyl)-7,8-dihydropteridin-6(5H)-one], the IC50 against PLK1 (GST-PLK1, 60 min reaction) is 1 to 10 µM; on PLK2 (GST-PLK2, 60 min reaction), under 1 µM; at PLK3 (setting [1]) it was 1 to 10 µM.
`CC[C@@H]1C(=O)N(C)c2cnc(-c3ccncc3NS(=O)(=O)c3ccccc3)nc2N1C1CCCC1` [Example 127, (R)—N-(4-(8-cyclopentyl-7-ethyl-5-methyl-6-oxo-5,6,7,8-tetrahydropteridin-2-yl)pyridin-3-yl)benzenesulfonamide]: the IC50 was 10 to 50 µM at PLK1 (GST-PLK1, 60 min reaction); 10 to 50 µM on PLK2 (GST-PLK2, 60 min reaction); over 50 µM on PLK3 (setting [1]).
`CC[C@@H]1C(=O)N(C)c2cnc(-n3ccnc3-c3ccncc3)nc2N1CCC(F)(F)F` [Example 234, (R)-7-ethyl-5-methyl-2-(2-(pyridin-4-yl)-1H-imidazol-1-yl)-8-(3,3,3-trifluoropropyl)-7,8-dihydropteridin-6(5H)-one]: the IC50 was 1 to 10 µM on PLK1 (GST-PLK1, 60 min reaction); under 1 µM at PLK2 (GST-PLK2, 60 min reaction); 10 to 50 µM on PLK3 (setting [1]).
As for `CC[C@@]12CCCN1c1nc(-c3cn[nH]c3-c3nccs3)ncc1N(C)C2=O` [Example 338, (S)-6a-ethyl-5-methyl-2-(5-(thiazol-2-yl)-1H-pyrazol-4-yl)-6a,7,8,9-tetrahydropyrrolo[2,1-h]pteridin-6(5H)-one], the IC50 on PLK1 (GST-PLK1, 60 min reaction) was over 50 µM; on PLK2 (GST-PLK2, 60 min reaction), 10 to 50 µM; on PLK3 (setting [1]), over 50 µM.
With `CC[C@@H]1C(=O)N(C)c2cnc(-c3ccncc3NC(=O)OC)nc2N1C(C)C` [Example 117, (R)-methyl 4-(7-ethyl-8-isopropyl-5-methyl-6-oxo-5,6,7,8-tetrahydropteridin-2-yl)pyridin-3-ylcarbamate], the 50% inhibitory concentration (IC50) against PLK1 (GST-PLK1, 60 min reaction) is 1 to 10 µM; on PLK2 (GST-PLK2, 60 min reaction) it was 1 to 10 µM; on PLK3 (setting [1]), over 50 µM.
On to `CC[C@@H]1CC[C@@]2(CC)C(=O)N(C)c3cnc(-c4cn[nH]c4-c4cscn4)nc3N12` [Example 356, (6aS,9R)-6a,9-diethyl-5-methyl-2-(5-(thiazol-4-yl)-1H-pyrazol-4-yl)-6a,7,8,9-tetrahydropyrrolo[2,1-h]pteridin-6(5H)-one], for which the half-maximal inhibitory concentration (IC50) is 1 to 10 µM at PLK1 (GST-PLK1, 60 min reaction); under 1 µM on PLK2 (GST-PLK2, 60 min reaction); 1 to 10 µM on PLK3 (setting [1]).
For `CC[C@@H]1C(=O)N(C)c2cnc(-n3ccnc3-c3cccc(F)c3F)nc2N1C1CCOC1` (stereo partly drawn) [Example 253, (7R)-2-(2-(2,3-difluorophenyl)-1H-imidazol-1-yl)-7-ethyl-5-methyl-8-(tetrahydrofuran-3-yl)-7,8-dihydropteridin-6(5H)-one], the IC50 at PLK1 (GST-PLK1, 60 min reaction) is under 1 µM; at PLK2 (GST-PLK2, 60 min reaction), under 1 µM; on PLK3 (setting [1]), 1 to 10 µM.
In the case of `CC[C@@]12CCCN1c1nc(-c3cncnc3-c3ccccc3)ncc1N(C)C2=O` [Example 222, (S)-6a-ethyl-5-methyl-2-(4-phenylpyrimidin-5-yl)-6a,7,8,9-tetrahydropyrrolo[2,1-h]pteridin-6(5H)-one], the half-maximal inhibitory concentration (IC50) on PLK1 (GST-PLK1, 60 min reaction) was 10 to 50 µM; at PLK2 (GST-PLK2, 60 min reaction), 1 to 10 µM; at PLK3 (setting [1]) it was 10 to 50 µM.
In the case of `CC[C@@H]1C(=O)N(C)c2cnc(N3CCN(c4cnccn4)CC3)nc2N1C1CCCC1` [Example 223, (R)-8-cyclopentyl-7-ethyl-5-methyl-2-(4-(pyrazin-2-yl)piperazin-1-yl)-7,8-dihydropteridin-6(5H)-one], the IC50 against PLK1 (GST-PLK1, 60 min reaction) was 1 to 10 µM; on PLK2 (GST-PLK2, 60 min reaction) it was 1 to 10 µM; at PLK3 (setting [1]), over 50 µM.
As for `CCC1C(=O)N(C)c2cnc(-n3ccnc3)nc2N1c1cccc(-c2cncnc2)c1` (stereo not drawn) [Example 333, 7-ethyl-2-(1H-imidazol-1-yl)-5-methyl-8-(3-(pyrimidin-5-yl)phenyl)-7,8-dihydropteridin-6(5H)-one], the IC50 against PLK1 (GST-PLK1, 60 min reaction) is 10 to 50 µM; at PLK2 (GST-PLK2, 60 min reaction) it was 10 to 50 µM; on PLK3 (setting [1]) it was over 50 µM.
On to `[2H]C([2H])([2H])N1C(=O)C(C([2H])([2H])C([2H])([2H])[2H])N(C([2H])(C([2H])([2H])[2H])C([2H])([2H])[2H])c2nc(-n3ccnc3-c3ccc(F)c(F)c3)ncc21` (stereo not drawn) [Example 169, 2-(2-(3,4-difluorophenyl)-1H-imidazol-1-yl)-7-perdeuteroethyl-8-perdeuteroisopropyl-5-trideuteromethyl-7,8-dihydropteridin-6(5H)-one], for which the half-inhibitory concentration (IC50) is 1 to 10 µM at PLK1 (GST-PLK1, 60 min reaction); under 1 µM on PLK2 (GST-PLK2, 60 min reaction); 10 to 50 µM on PLK3 (setting [1]).
`CCC1C(=O)N(C)c2cnc(-n3ccnc3)nc2N1c1ccccc1` (stereo not drawn) [Example 300, 7-ethyl-2-(1H-imidazol-1-yl)-5-methyl-8-phenyl-7,8-dihydropteridin-6(5H)-one]: the IC50 on PLK1 (GST-PLK1, 60 min reaction) is 1 to 10 µM; at PLK2 (GST-PLK2, 60 min reaction), 1 to 10 µM; on PLK3 (setting [1]) it was over 50 µM.
